Measured values published in patent EP0723972A1, “Lactylamines and their pharmaceutical application” (STEPAN EUROPE, priority 1995, dated 1996).
Values joined by “and” are separate entries in the source; they are usually repeats but may differ in a detail not shown here. Equal values may be shown once. Read-outs that look alike come from different tables or passages of the source.

Key:
Type in all cases: cell-based
Aspergillus fumigatus = assay: Anti-Aspergillus fumigatus in vitro growth inhibition (glucose consumption); settings: for IC50: Aspergillus fumigatus
Source text: Différents composés B1 ont été testés du point de vue de leurs propriétés anti-Aspergillus fumigatus, dans un essai in vitro standardisé, complètement décrit dans la publication (7) dont le contenu est incorporé, par référence, à la présente description.
Dans cet essai, la croissance dudit champignon est indiquée par la consommation de glucose qui constitue la seule source de carbone métabolisable, et on mesure la concentration en composé testé nécessaire pour inhiber 50% (IC50), et 90% (IC90) de la croissance du champignon. Deux composés témoin sont utilisés, l'Itraconazole et l'Amphotéricine B, dont les propriétés anti-Aspergillus fumigatus sont connues et qui servent dans cet essai de référence.

VIH (souche BRU) = assay: Anti-HIV in vitro test: syncytia formation in HIV-infected CEM cells; settings: 96 h
Source text: Les composés A (A1, A2) et B (B1, B2) sont testés du point de vue de leurs propriétés anti-VIH selon un protocole d'essai in vitro standardisé et complètement décrit dans les publications (5, 6), dont le contenu est incorporé par référence, à la présente description.
La multiplication du VIH (souche BRU) dans les cellules CEM est évaluée par le nombre de syncytia formés après 4 jours d'infection, résultant de l'interaction entre la glycoprotéine gp120 exprimée par les cellules (BRU) infectées par le VIH, et les lymphocytes T4 (CEM).
Les composés testés sont ajoutés après l'adsorption du virus dans le milieu de culture aux concentrations finales 10^-3M, 10^-4M, 10^-5M, 10^-6M et 10^-7M.
Les résultats sont exprimés par la concentration la plus faible de composés qui diminue la formation des syncytia d'au moins 50%. Cette concentration est appelée EC50. Elle doit être la plus basse possible.

CEM non infectées = assay: Toxicity on uninfected CEM cells, colorimetric formazan (MTT) reduction; settings: lowest concentration inhibiting formazan formation by at least 50%, four days of incubation, macrophage CEM-SS
Description: On détermine aussi la toxicité des composés testés. L'effet toxique sur les CEM non infectées est apprécié par une réaction colorimétrique basée sur la capacité des cellules vivantes à réduire le bromure de 3-(4,5-diméthylthiazol-2-yl)-2,5-diphényltétrazolium en formazan après quatre jours d'incubation en présence de différentes concentrations des composés. Les résultats sont exprimés par la concentration la plus faible de composés qui provoque une inhibition d'au moins 50% de la formation de formazan. Cette concentration est appelée CI50.

[1] = anti-VIH sur macrophage CEM-SS, lowest concentration reducing syncytia formation by at least 50%, 4 days of infection, read-out: EC50

Structure (SMILES)	IC50 (Aspergillus fumigatus; read-out: CI50)	EC50 (VIH (souche BRU); [1]) [µM]	CI50 (CEM non infectées) [µM]	activité anti-Aspergillus fumigatus (Aspergillus fumigatus; result in words, compared with the reference compound)	IC50 (Aspergillus fumigatus; concentration inhibiting 50% of fungal growth, read-out: CI50 (the source's name))	EC50 (VIH (souche BRU); CEM-SS) [µM]
C[C@@H]1[C@H](O)[C@@H](C)/C=C/C=C/C=C/C=C/C=C/C=C/C=C/[C@H](O[C@@H]2O[C@H](C)[C@@H](O)[C@H](N)[C@@H]2O)C[C@@H]2O[C@](O)(C[C@@H](O)C[C@@H](O)[C@H](O)CC[C@@H](O)C[C@@H](O)CC(=O)O[C@H]1C)C[C@H](O)[C@H]2C(=O)O [Amphotéricine B, reference compound]	0.02 µg/mL and 20 nM	–	–	–	–	–
CCCCCCCCCCCCCC(=O)N(CCCCCCCCC)C[C@H](O)[C@@H](O)[C@H](O[C@@H]1O[C@H](CO)[C@H](O)[C@H](O)[C@H]1O)[C@H](O)CO [B1(9, 13)]	5 µg/mL and 7.4 µM	–	–	–	–	–
CCCCCCCCCCCCCCCC(=O)N(CCCCCCCCC)C[C@H](O)[C@@H](O)[C@H](O[C@@H]1O[C@H](CO)[C@H](O)[C@H](O)[C@H]1O)[C@H](O)CO [B1(9, 15)]	1.6 µg/mL and 2.3 µM	10	> 100	–	–	–
CCCCCCCCCCCCCCCCCC(=O)N(CCCCCCCCC)C[C@H](O)[C@@H](O)[C@H](O[C@@H]1O[C@H](CO)[C@H](O)[C@H](O)[C@H]1O)[C@H](O)CO [B1(9, 17)]	0.5 µg/mL and 600 nM	–	–	proche de celle de l'Amphotéricine B	–	–
CCC(C)n1ncn(-c2ccc(N3CCN(c4ccc(OCC5COC(Cn6cncn6)(c6ccc(Cl)cc6Cl)O5)cc4)CC3)cc2)c1=O (centres unmarked) [Itraconazole, reference compound]	–	–	–	–	0.003 µg/mL and 4 nM	–
CCCCCCCCCCCCNC[C@H](O)[C@@H](O)[C@H](O[C@@H]1O[C@H](CO)[C@H](O)[C@H](O)[C@H]1O)[C@H](O)CO [N-dodécylaminodésoxyl-1-lactitol]	> 100 µg/mL and 195 µM	–	7000	–	–	1000
CCCCCCCCCCCCCCCCNC[C@H](O)[C@@H](O)[C@H](O[C@@H]1O[C@H](CO)[C@H](O)[C@H](O)[C@H]1O)[C@H](O)CO [N-hexadécylaminodésoxy-l-lactitol]	2.2 µg/mL and 3.8 µM	–	70	–	–	50
CCCCCCCCCNC[C@H](O)[C@@H](O)[C@H](O[C@@H]1O[C@H](CO)[C@H](O)[C@H](O)[C@H]1O)[C@H](O)CO [N-nonylaminodésoxy-1-lactitol]	> 100 µg/mL and > 220 µM	1	40	–	–	–
CCCCCCCCCCCCCCNC[C@H](O)[C@@H](O)[C@H](O[C@@H]1O[C@H](CO)[C@H](O)[C@H](O)[C@H]1O)[C@H](O)CO [N-tétradécylaminodésoxy-l-lactitol]	15.2 µg/mL and 28.1 µM	–	70	–	–	50
